Active and inactive are the calls of the source. Rule as the data show it, for most assays here: actives have a measured Kd and inactives only a lower limit.
Legend:
[1] = target: Tyrosine-protein kinase ABL1 (Homo sapiens, UniProt P00519)
[2] = target: T1, Cysteine--tRNA ligase, cytoplasmic (Homo sapiens, UniProt P49589)
T1 sequence (P49589 whole entry): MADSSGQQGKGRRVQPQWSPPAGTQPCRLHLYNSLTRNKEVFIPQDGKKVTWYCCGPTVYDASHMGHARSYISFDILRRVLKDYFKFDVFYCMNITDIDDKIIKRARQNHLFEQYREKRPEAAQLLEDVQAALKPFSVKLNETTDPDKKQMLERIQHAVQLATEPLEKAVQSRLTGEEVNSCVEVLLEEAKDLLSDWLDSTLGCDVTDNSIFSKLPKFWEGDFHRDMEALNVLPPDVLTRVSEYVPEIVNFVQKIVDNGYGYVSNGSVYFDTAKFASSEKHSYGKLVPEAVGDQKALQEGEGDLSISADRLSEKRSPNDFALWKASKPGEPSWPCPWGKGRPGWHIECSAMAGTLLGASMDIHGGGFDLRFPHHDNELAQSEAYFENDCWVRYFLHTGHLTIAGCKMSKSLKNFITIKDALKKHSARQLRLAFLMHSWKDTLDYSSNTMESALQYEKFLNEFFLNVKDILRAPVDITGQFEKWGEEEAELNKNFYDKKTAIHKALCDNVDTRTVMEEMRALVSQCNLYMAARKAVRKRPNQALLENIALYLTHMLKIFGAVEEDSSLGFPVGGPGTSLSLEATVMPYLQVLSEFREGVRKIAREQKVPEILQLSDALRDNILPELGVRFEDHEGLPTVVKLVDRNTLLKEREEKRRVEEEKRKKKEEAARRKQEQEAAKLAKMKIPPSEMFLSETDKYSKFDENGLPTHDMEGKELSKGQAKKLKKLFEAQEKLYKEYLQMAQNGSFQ

[3] = target: T2, Electron transfer flavoprotein subunit beta (Homo sapiens, UniProt P38117)
T2 sequence (P38117 whole entry): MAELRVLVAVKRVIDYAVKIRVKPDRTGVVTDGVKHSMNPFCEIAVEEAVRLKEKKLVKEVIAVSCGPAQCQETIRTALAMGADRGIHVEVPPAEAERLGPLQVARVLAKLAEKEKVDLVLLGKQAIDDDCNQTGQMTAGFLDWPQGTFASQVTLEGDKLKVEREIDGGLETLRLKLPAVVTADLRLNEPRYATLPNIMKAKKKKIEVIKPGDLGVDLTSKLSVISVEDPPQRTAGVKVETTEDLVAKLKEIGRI

[4] = target: Tyrosine-protein kinase Fer (Homo sapiens, UniProt P16591)
[5] = target: T3, Serine/threonine-protein kinase LATS1 (Homo sapiens, UniProt O95835)
T3 sequence (O95835 whole entry): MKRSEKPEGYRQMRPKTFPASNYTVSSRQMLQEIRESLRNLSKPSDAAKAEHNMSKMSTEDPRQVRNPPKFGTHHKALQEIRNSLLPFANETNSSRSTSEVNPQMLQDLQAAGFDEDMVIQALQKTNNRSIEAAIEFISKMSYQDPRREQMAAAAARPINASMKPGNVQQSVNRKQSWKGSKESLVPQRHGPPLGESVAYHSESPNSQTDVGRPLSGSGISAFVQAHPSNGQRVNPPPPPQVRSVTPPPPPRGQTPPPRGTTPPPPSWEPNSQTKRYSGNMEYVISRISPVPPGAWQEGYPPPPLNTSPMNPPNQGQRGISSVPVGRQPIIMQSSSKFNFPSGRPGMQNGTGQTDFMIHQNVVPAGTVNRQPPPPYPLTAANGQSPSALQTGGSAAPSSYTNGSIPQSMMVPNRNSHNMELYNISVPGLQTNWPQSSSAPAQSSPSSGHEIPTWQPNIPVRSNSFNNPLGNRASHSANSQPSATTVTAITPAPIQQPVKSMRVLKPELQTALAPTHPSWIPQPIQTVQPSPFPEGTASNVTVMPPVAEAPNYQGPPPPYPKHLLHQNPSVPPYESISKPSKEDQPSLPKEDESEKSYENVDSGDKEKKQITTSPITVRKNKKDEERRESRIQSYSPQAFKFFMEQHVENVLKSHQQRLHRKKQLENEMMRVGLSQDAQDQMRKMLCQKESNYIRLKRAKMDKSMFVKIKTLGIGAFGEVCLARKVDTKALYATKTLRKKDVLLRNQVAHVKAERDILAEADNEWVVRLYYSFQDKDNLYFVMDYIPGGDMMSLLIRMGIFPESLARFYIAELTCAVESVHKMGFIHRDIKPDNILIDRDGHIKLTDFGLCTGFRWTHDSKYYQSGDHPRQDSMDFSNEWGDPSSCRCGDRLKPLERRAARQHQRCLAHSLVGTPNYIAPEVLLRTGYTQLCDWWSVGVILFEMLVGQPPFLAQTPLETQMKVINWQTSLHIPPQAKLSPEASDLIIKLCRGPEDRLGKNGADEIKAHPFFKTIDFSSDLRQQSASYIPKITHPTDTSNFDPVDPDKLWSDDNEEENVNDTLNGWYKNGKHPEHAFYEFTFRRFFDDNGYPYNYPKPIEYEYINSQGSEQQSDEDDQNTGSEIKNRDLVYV

[6] = target: Tyrosine-protein kinase Lck (Homo sapiens, UniProt P06239)
[7] = target: T4, Serine/threonine-protein kinase STK11 (Homo sapiens, UniProt Q15831)
T4 sequence (Q15831 whole entry): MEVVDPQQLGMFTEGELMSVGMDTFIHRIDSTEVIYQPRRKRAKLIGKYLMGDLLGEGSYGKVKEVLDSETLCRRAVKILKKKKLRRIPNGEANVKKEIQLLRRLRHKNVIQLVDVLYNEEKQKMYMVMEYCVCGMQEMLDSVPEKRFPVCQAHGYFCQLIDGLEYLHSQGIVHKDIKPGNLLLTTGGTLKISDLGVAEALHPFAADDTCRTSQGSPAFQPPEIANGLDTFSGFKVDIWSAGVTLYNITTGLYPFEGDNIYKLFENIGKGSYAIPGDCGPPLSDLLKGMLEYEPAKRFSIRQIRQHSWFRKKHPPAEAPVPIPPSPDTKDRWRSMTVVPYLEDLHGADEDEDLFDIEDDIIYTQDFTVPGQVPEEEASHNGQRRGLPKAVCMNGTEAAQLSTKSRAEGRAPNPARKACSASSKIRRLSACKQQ
Also: in the data inactive means no Kd found up to 30 µM.

Sequence of Tyrosine-protein kinase Fer (P16591 whole entry): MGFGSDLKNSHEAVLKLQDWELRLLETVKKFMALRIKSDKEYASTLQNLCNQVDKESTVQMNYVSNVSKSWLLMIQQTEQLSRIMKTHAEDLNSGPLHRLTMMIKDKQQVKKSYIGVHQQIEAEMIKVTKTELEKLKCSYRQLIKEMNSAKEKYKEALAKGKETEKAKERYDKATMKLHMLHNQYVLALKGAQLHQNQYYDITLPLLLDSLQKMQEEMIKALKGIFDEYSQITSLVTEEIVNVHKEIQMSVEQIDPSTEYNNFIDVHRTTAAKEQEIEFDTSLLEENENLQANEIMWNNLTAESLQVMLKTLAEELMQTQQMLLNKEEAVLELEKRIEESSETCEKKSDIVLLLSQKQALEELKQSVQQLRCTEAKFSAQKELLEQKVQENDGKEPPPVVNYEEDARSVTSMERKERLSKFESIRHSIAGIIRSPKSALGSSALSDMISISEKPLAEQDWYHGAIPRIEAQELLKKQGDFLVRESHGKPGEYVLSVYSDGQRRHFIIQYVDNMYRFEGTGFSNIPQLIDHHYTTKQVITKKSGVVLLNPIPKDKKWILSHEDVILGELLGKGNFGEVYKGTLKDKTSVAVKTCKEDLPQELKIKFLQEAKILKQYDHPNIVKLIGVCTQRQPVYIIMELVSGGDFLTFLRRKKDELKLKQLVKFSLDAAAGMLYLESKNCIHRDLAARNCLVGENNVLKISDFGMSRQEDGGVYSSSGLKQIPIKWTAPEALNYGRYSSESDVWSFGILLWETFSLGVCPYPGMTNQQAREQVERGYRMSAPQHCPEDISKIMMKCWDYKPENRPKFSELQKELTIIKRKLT
Sequence of Tyrosine-protein kinase ABL1 (P00519 whole entry): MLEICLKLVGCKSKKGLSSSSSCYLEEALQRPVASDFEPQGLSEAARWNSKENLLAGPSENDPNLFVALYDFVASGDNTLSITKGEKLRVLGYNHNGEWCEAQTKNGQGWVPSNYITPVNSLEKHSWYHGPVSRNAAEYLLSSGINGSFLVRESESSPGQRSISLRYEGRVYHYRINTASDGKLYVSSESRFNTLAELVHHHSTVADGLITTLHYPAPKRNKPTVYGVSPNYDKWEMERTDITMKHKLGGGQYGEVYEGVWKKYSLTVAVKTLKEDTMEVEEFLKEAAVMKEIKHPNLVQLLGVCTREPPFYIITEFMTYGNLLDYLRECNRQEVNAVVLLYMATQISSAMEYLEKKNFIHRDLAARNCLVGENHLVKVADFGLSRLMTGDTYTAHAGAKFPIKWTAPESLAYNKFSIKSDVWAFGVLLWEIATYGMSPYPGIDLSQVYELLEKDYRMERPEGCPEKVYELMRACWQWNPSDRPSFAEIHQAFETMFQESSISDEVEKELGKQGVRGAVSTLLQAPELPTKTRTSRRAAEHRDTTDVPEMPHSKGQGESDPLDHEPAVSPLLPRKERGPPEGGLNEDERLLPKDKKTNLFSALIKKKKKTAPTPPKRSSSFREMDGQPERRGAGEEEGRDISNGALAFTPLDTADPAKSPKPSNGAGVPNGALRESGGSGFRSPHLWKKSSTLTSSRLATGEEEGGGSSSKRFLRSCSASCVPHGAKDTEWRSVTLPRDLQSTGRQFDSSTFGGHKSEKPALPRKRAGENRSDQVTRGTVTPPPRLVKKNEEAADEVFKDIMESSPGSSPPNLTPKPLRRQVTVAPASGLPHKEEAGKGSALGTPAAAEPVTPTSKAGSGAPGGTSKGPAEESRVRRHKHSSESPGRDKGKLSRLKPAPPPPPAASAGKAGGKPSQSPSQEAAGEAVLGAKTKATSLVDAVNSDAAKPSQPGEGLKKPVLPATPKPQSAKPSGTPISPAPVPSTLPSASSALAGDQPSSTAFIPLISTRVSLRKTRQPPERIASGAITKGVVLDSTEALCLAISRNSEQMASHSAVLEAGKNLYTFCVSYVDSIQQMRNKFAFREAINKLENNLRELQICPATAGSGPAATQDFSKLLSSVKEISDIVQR
Sequence of Tyrosine-protein kinase Lck (P06239 whole entry): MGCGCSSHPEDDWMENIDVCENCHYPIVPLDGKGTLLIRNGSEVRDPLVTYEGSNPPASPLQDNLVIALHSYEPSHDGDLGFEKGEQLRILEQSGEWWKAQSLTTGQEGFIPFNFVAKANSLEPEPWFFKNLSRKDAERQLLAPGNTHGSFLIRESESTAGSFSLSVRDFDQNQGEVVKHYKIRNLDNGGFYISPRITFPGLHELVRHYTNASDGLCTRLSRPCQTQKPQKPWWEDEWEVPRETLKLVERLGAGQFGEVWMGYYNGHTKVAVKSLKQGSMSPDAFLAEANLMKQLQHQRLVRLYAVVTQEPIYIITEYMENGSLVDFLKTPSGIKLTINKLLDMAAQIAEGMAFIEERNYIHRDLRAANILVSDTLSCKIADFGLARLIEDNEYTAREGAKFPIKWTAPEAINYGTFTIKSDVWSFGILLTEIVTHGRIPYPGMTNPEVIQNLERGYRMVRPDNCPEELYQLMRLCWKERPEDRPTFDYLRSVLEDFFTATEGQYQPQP

Row | SMILES | Kd [1] | Kd [2] | Kd [3] | Kd [4] | Kd [5] | Kd [6] | Kd [7]
1 | O=c1sn(-c2cccc3ccccc23)c(=O)n1Cc1ccccc1 [TIDEGLUSIB] | > 30 µM (inactive) | > 30 µM (inactive) | > 30 µM (inactive) | > 30 µM (inactive) | > 30 µM (inactive) | > 30 µM (inactive) | > 30 µM (inactive)
2 | CNS(=O)(=O)Nc1nccc(Cc2c(C)c3ccc(Oc4ncccn4)cc3oc2=O)c1F [AVUTOMETINIB] | > 30 µM (inactive) | > 30 µM (inactive) | > 30 µM (inactive) | > 30 µM (inactive) | > 30 µM (inactive) | > 30 µM (inactive) | > 30 µM (inactive)
3 | CN(C)C(=O)c1cc2cnc(Nc3ccc(N4CCNCC4)cn3)nc2n1C1CCCC1 [RIBOCICLIB] | > 30 µM (inactive) | > 30 µM (inactive) | > 30 µM (inactive) | > 30 µM (inactive) | > 30 µM (inactive) | > 30 µM (inactive) | > 30 µM (inactive)
4 | COc1ccc(-c2ccc3c(N4CCOC[C@@H]4C)nc(N4CCOC[C@@H]4C)nc3n2)cc1CO [AZD-8055] | > 30 µM (inactive) | > 30 µM (inactive) | > 30 µM (inactive) | > 30 µM (inactive) | > 30 µM (inactive) | > 30 µM (inactive) | > 30 µM (inactive)
5 | COc1cc2nccc(Oc3ccc(NC(=O)Nc4cc(C)on4)c(Cl)c3)c2cc1OC [TIVOZANIB] |  | > 30 µM (inactive) | > 30 µM (inactive) | > 30 µM (inactive) | > 30 µM (inactive) | 2.18 µM (active) | > 30 µM (inactive)
6 | CNC(=O)CN1CCC(Oc2cc3c(Nc4cccc(Cl)c4F)ncnc3cc2OC)CC1 [SAPITINIB] | > 30 µM (inactive) | > 30 µM (inactive) | > 30 µM (inactive) | > 30 µM (inactive) | > 30 µM (inactive) | > 30 µM (inactive) | > 30 µM (inactive)
7 | CCCS(=O)(=O)Nc1ccc(F)c(C(=O)c2c[nH]c3ncc(-c4ccc(Cl)cc4)cc23)c1F [VEMURAFENIB] | > 30 µM (inactive) | > 30 µM (inactive) | > 30 µM (inactive) | > 30 µM (inactive) | > 30 µM (inactive) | > 30 µM (inactive) | > 30 µM (inactive)
8 | C[C@@H](c1ccc2nccn2c1)n1nnc2ncc(-c3cnn(C)c3)nc21 [SAVOLITINIB] | > 30 µM (inactive) | > 30 µM (inactive) | > 30 µM (inactive) | > 30 µM (inactive) | > 30 µM (inactive) | > 30 µM (inactive) | 
9 | CN1CCC(COc2cnc(-c3cccc(Cn4nc(-c5cccc(C#N)c5)ccc4=O)c3)nc2)CC1 [TEPOTINIB] | > 30 µM (inactive) | > 30 µM (inactive) | > 30 µM (inactive) | > 30 µM (inactive) | > 30 µM (inactive) | > 30 µM (inactive) | > 30 µM (inactive)
10 | CNC(=O)c1ccc(-c2cnc3ncc(Cc4ccc5ncccc5c4)n3n2)cc1F [CAPMATINIB] | > 30 µM (inactive) | > 30 µM (inactive) | > 30 µM (inactive) | > 30 µM (inactive) | > 30 µM (inactive) | > 30 µM (inactive) | > 30 µM (inactive)
11 | CCn1c(=O)c(-c2cc[nH]n2)cc2c(C)nc(N)nc21 [VOXTALISIB] | > 30 µM (inactive) | > 30 µM (inactive) | > 30 µM (inactive) | > 30 µM (inactive) | > 30 µM (inactive) | > 30 µM (inactive) | 
12 | Cc1cc2c(F)c(Oc3ncnn4cc(OC[C@@H](C)OC(=O)[C@H](C)N)c(C)c34)ccc2[nH]1 [BRIVANIB ALANINATE] | > 30 µM (inactive) | > 30 µM (inactive) | > 30 µM (inactive) | > 30 µM (inactive) | > 30 µM (inactive) | > 30 µM (inactive) | > 30 µM (inactive)
13 | Cc1ccc(-n2nc(C(C)(C)C)cc2NC(=O)NCc2cc(F)ccc2Oc2ccc3c(cnn3CCO)c2)cc1 [PEXMETINIB] | 0.211 µM (active) | > 30 µM (inactive) | > 30 µM (inactive) | > 30 µM (inactive) | > 30 µM (inactive) | > 30 µM (inactive) | > 30 µM (inactive)
14 | CC[C@H](Nc1ncnc2[nH]cnc12)c1nc2cccc(F)c2c(=O)n1-c1ccccc1 [IDELALISIB] | > 30 µM (inactive) | > 30 µM (inactive) | > 30 µM (inactive) | > 30 µM (inactive) | > 30 µM (inactive) | > 30 µM (inactive) | > 30 µM (inactive)
15 | CNC(=O)c1cc(Oc2ccc(NC(=O)Nc3ccc(Cl)c(C(F)(F)F)c3)c(F)c2)ccn1 [REGORAFENIB] | 0.753 µM (active) | > 30 µM (inactive) | > 30 µM (inactive) | > 30 µM (inactive) | > 30 µM (inactive) | > 30 µM (inactive) | > 30 µM (inactive)
16 | CN1N=C(N)c2cn([C@@H]3O[C@H](COP(=O)(O)O)[C@@H](O)[C@H]3O)c3ncnc1c23 [TRICIRIBINE PHOSPHATE] | > 30 µM (inactive) | > 30 µM (inactive) | > 30 µM (inactive) | > 30 µM (inactive) | > 30 µM (inactive) | > 30 µM (inactive) | > 30 µM (inactive)
17 | CN1CCC(CNc2ccc3ncc(-c4cccc(OC(F)(F)F)c4)n3n2)CC1 [SGI-1776] | > 30 µM (inactive) | > 30 µM (inactive) | > 30 µM (inactive) | > 30 µM (inactive) | > 30 µM (inactive) | > 30 µM (inactive) | > 30 µM (inactive)
18 | COc1cc2nccc(Oc3ccc(NC(=O)NC4CC4)c(Cl)c3)c2cc1C(N)=O [LENVATINIB] |  | > 30 µM (inactive) | > 30 µM (inactive) |  | > 30 µM (inactive) | > 30 µM (inactive) | > 30 µM (inactive)
19 | Cc1ccc(NC(=O)c2ccc(CN3CC[C@H](N(C)C)C3)c(C(F)(F)F)c2)cc1Nc1nccc(-c2cncnc2)n1 [BAFETINIB] | 0.026 µM (active) | > 30 µM (inactive) | > 30 µM (inactive) | > 30 µM (inactive) | > 30 µM (inactive) |  | > 30 µM (inactive)

Reference: ChEMBL document CHEMBL3991601, “The target landscape of clinical kinase drugs” (Science, 2017)
